{"source": "patent US20220000835A1", "about": "“METHOD FOR TREATING CANCER WITH A COMBINATION OF QUERCETIN AND A CHEMOTHERAPY AGENT” (Quercis Pharma A.G., priority 2014, published 2022)", "key": {"[1]": {"tested_on": "metastatic bladder cancer", "assay": "Patient with tumor from metastatic bladder cancer, PET scan and patient report", "assay_type": "in vivo, human", "conditions": "patient bearing a tumor from metastatic bladder cancer", "protocol": "In a particular example, a patient bearing a tumor resulting from metastatic bladder cancer failed monotherapy with cisplatin. Subsequently, the patient was treated daily with 100 mg cyclophosphamide together with a composition containing 2 g of quercetin. […] Of note, this patient typically would not have been treated further after failing the monotherapy with cisplatin."}, "[2]": {"assay": "Stabilization of quercetin by vitamin B3 and/or vitamin C", "assay_type": "physicochemical", "conditions": "in the presence of one or both of vitamin B3 and vitamin C"}}, "data": [{"smiles": "N.N.[Cl][Pt][Cl]", "note": "[cisplatin]", "values": [{"measurement": "outcome of monotherapy", "setting": "[1]", "result": "failed"}]}, {"smiles": "O=c1c(O)c(-c2ccc(O)c(O)c2)oc2cc(O)cc(O)c12", "note": "[quercetin]", "values": [{"measurement": "stability of quercetin", "setting": "[2]", "result": "stabilized"}]}]}
